# Test results taken from patent publication US20110082162A1, “SYNERGISTIC FUNGICIDAL COMPOSITION CONTAINING 5-FLUOROCYTOSINE FOR FUNGAL CONTROL IN CEREALS” (DOW AGROSCIENCES LLC, priority 2009, published 2011).
# Columns and labels:
# [1] = tested on: Septoria tritici (SEPTTR; Mycosphaerella graminicola); assay: 1-day protectant (1DP) test vs. leaf blotch of wheat, fungicide applied 1 day before inoculation; assay type: in vivo, Septoria tritici on wheat plants (variety Yuma); conditions: Zymoseptoria tritici, read-out: % DC Obs (percent disease control observed)
# Description: (§1) Evaluation of Curative and Protectant Activity of Fungicide Mixtures vs. Leaf Blotch of Wheat (Mycosphaerella graminicola; anamorph: Septoria tritici; Bayer code: SEPTTR)
# (§2) Wheat plants (variety Yuma) were grown from seed in a greenhouse in plastic pots with a surface area of 27.5 square centimeters (cm2) containing 50% mineral soil/50% soil-less Metro mix, with 8-12 seedlings per pot. The plants were employed for testing when the first leaf was fully emerged, which typically took 7 to 8 days after planting. Test plants were inoculated with an aqueous spore suspension of Septoria tritici either 3 days prior to (3-day curative test; 3DC) or 1 day after fungicide treatments (1-day protectant test; 1DP). After inoculation the plants were kept at 100% relative humidity (one day in a dark dew chamber followed by two days in a lighted mist chamber) to permit spores to germinate and infect the leaf. The plants were then transferred to a greenhouse until disease symptoms were fully expressed.
# (§3) Treatments consisted of fungicides, including a compound of Formula I, epoxiconazole, prothioconazole, azoxystrobin, pyraclostrobin, penthiopyrad, isopyrazam, bixafen, boscalid, chlorothalonil and isobutyric acid (3S,6S,7R,8R)-8-benzyl-3-[(3-isobutyryloxymethoxy-4-methoxypyridine-2-carbonyl)-amino]-6-methyl-4,9-dioxo-[1,5]dioxonan-7-yl ester (compound A), applied either individually or as two-way mixtures with a compound of Formula I. 1% of water solution of a compound with Formula I was used in the tests. Technical grades of other materials were dissolved in acetone to make stock solutions, which were then used to perform three-fold dilutions in acetone either for each individual fungicide component or for the two-way mixtures. Desired fungicide rates were obtained after mixing dilutions with nine volumes of water containing 110 parts per million (ppm) Triton X-100. Ten milliliter (mL) fungicide solutions were applied onto six pots of plants using an automated booth sprayer, which utilized two 6218-1/4 JAUPM spray nozzles operating at 20 pounds per square inch (psi) set at opposing angles to cover both leaf surfaces. All sprayed plants were allowed to air dry prior to further handling. Control plants were sprayed in the same manner with the solvent blank.
# (§4) When disease reached 80 to 100% on the control plants, infection levels were assessed on treated plants visually and scored on a scale of 0 to 100 percent. Percentage of disease control was then calculated using the ratio of disease on treated plants relative to control plants.
# (§5) Colby's equation was used to determine the fungicidal effects expected from the mixtures. (See Colby, S. R. Calculation of the synergistic and antagonistic response of herbicide combinations. Weeds 1967, 15, 20-22.)
# (§6) The following equation was used to calculate the expected activity of mixtures containing two active ingredients, A and B:
# (§7) A=observed efficacy of active component A at the same concentration as used in the mixture;
# (§8) B=observed efficacy of active component B at the same concentration as used in the mixture.
# [2] = tested on: Septoria tritici (SEPTTR; Mycosphaerella graminicola); assay: 3-day curative (3DC) test vs. leaf blotch of wheat, inoculation 3 days before fungicide treatment; assay type: in vivo, Septoria tritici on wheat plants (variety Yuma); conditions: Zymoseptoria tritici, read-out: % DC Obs (percent disease control observed); for pest or weed control at 0.6 ppm: applied alone at 0.6 ppm; for pest or weed control at 1.8 ppm: applied alone at 1.8 ppm
# Description: as §1, §2, §3, §4, §5, §6, §7, §8
# [3] = 1DP SEPTTR, applied alone at 0.6 ppm
# [4] = 1DP SEPTTR, applied alone at 1.8 ppm
structure (smiles),measurement,setting,value
"Fc1ccc([C@]2(Cn3cncn3)O[C@H]2c2ccccc2Cl)cc1 (racemic) [Epoxiconazole, rel-1-[[(2R,3S)-3-(2-chlorophenyl)-2-(4-fluorophenyl)oxiranyl]methyl]-1H-1,2,4-triazole]",pest or weed control at 0.0375 ppm,"[1]; 1DP SEPTTR, applied alone at 0.0375 ppm",15%
same,pest or weed control at 0.125 ppm,"[1]; 1DP SEPTTR, applied alone at 0.125 ppm",27%
"CO/C=C(/C(=O)OC)c1ccccc1Oc1cc(Oc2ccccc2C#N)ncn1 [Azoxystrobin, methyl (αE)-2-[[6-(2-cyanophenoxy)-4-pyrimidinyl]oxy]-α-(methoxymethylene)benzeneacetate]",pest or weed control at 0.6 ppm,[1]; [3],21%
same,pest or weed control at 1.8 ppm,[1]; [4],32%
same,pest or weed control at 0.6 ppm,[2]; 3DC SEPTTR,22%
same,pest or weed control at 1.8 ppm,[2]; 3DC SEPTTR,59%
"Cn1cc(C(=O)Nc2ccc(F)cc2-c2ccc(Cl)c(Cl)c2)c(C(F)F)n1 [Bixafen, N-(3′,4′-dichloro-5-fluoro[1,1′-biphenyl]-2-yl)-3-(difluoromethyl)-1-methyl-1H-pyrazole-4-carboxamide]",pest or weed control at 0.6 ppm,[1],14%
same,pest or weed control at 1.8 ppm,[1],71%
"O=C(Nc1ccccc1-c1ccc(Cl)cc1)c1cccnc1Cl [Boscalid, 2-chloro-N-(4′-chloro[1,1′-biphenyl]-2-yl)-3-pyridinecarboxamide]",pest or weed control at 1.8 ppm,[1]; [4],9%
same,pest or weed control at 1.8 ppm,[2]; 3DC SEPTTR,8%
"N#Cc1c(Cl)c(Cl)c(Cl)c(C#N)c1Cl [Chlorothalonil, 2,4,5,6-tetrachloro-1,3-benzenedicarbonitrile]",pest or weed control at 13.5 ppm,"[1]; 1DP SEPTTR, applied alone at 13.5 ppm",13%
same,pest or weed control at 42 ppm,"[1]; 1DP SEPTTR, applied alone at 42 ppm",8%
same,pest or weed control at 13.5 ppm,"[2]; 3DC SEPTTR, applied alone at 13.5 ppm",0%
same,pest or weed control at 42 ppm,"[2]; 3DC SEPTTR, applied alone at 42 ppm",0%
"COc1ccnc(C(=O)N[C@H]2COC(=O)[C@H](Cc3ccccc3)[C@@H](OC(=O)C(C)C)[C@H](C)OC2=O)c1OCOC(=O)C(C)C [Compound A, Isobutyric acid (3S,6S,7R,8R)-8-benzyl-3-[(3-isobutyryloxymethoxy-4-methoxy-pyridine-2-carbonyl)-amino]-6-methyl-4,9-dioxo-[1,5]dioxonan-7-yl ester]",pest or weed control at 1.35 ppm,[2],6%
"Nc1nc(O)ncc1F [Compound I, 5-FLUOROCYTOSINE]",pest or weed control at 0.03 ppm,"[1]; 1DP SEPTTR, applied alone at 0.03 ppm",13%
same,pest or weed control at 0.1 ppm,"[1]; 1DP SEPTTR, applied alone at 0.1 ppm",11%
same,pest or weed control at 0.3 ppm,"[1]; 1DP SEPTTR, applied alone at 0.3 ppm",8%
same,pest or weed control at 0.9 ppm,"[1]; 1DP SEPTTR, applied alone at 0.9 ppm",18%
same,pest or weed control at 2.8 ppm,"[1]; 1DP SEPTTR, applied alone at 2.8 ppm",79%
same,pest or weed control at 0.03 ppm,"[2]; 3DC SEPTTR, applied alone at 0.03 ppm",4%
same,pest or weed control at 0.1 ppm,"[2]; 3DC SEPTTR, applied alone at 0.1 ppm",33%
same,pest or weed control at 0.3 ppm,"[2]; 3DC SEPTTR, applied alone at 0.3 ppm",67%
same,pest or weed control at 0.9 ppm,"[2]; 3DC SEPTTR, applied alone at 0.9 ppm",75%
same,pest or weed control at 2.8 ppm,"[2]; 3DC SEPTTR, applied alone at 2.8 ppm",94%
"CC(C)C1C2CCC1c1c(NC(=O)c3cn(C)nc3C(F)F)cccc12 (stereo not drawn) [Isopyrazam, 3-(difluoromethyl)-1-methyl-N-[1,2,3,4-tetrahydro-9-(1-methylethyl)-1,4-methanonaphthalen-5-yl]-1H-pyrazole-4-carboxamide]",pest or weed control at 0.06 ppm,[1],5%
same,pest or weed control at 0.2 ppm,[1],9%
same,pest or weed control at 0.6 ppm,[1],19%
same,pest or weed control at 0.06 ppm,[2],22%
"CC(C)CC(C)c1sccc1NC(=O)c1cn(C)nc1C(F)(F)F (stereo not drawn) [Penthiopyrad, N-[2-(1,3-dimethylbutyl)-3-thienyl]-1-methyl-3-(trifluoromethyl)-1H-pyrazole-4-carboxamide]",pest or weed control at 0.6 ppm,[1]; [3],7%
same,pest or weed control at 1.8 ppm,[1]; [4],30%
same,pest or weed control at 1.8 ppm,[2]; 3DC SEPTTR,24%
"OC(Cc1ccccc1Cl)(Cn1[nH]cnc1=S)C1(Cl)CC1 (stereo not drawn) [Prothioconazole, 2-[2-(1-chlorocyclopropyl)-3-(2-chlorophenyl)-2-hydroxypropyl]-1,2-dihydro-3H-1,2,4-triazole-3-thione]",pest or weed control at 0.6 ppm,[1]; [3],18%
same,pest or weed control at 1.8 ppm,[1]; [4],25%
same,pest or weed control at 0.6 ppm,[2]; 3DC SEPTTR,12%
same,pest or weed control at 1.8 ppm,[2]; 3DC SEPTTR,25%
